Reference: PubChem BioAssay AID192 (DTP/NCI, 2004)
Values joined by “and” are separate entries in the source; they are usually repeats but may differ in a detail not shown here. Identical values can stand only once. Toxic doses and inconclusive results are not listed. Rule for the calls: active = survival T/C of 150% or more; inactive = T/C below 125% in these data.

Test system: BDF1 mice, B16 melanoma ip, median survival T/C
Assay: NCI In Vivo Anticancer Drug Screen. Data for tumor model B16 Melanoma (intraperitoneal) in B6D2F1 (BDF1) mice
Conditions: endpoint: median survival time, higher = longer survival
Procedure, shortened: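 Antitumor activity is assessed in mice bearing a transplanted tumor, with survival or tumor size compared against vehicle-dosed controls and expressed as T/C.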

[1] = dose: 100.0 mg/kg/injection, schedule: Q01DX009 (ip), vehicle: Klucel (hydroxypropylcellulose) (HPC)
[2] = dose: 200.0 mg/kg/injection, schedule: Q01DX009 (ip), vehicle: Klucel (hydroxypropylcellulose) (HPC)
[3] = dose: 400.0 mg/kg/injection, schedule: Q01DX009 (ip), vehicle: Klucel (hydroxypropylcellulose) (HPC)
[4] = dose: 100.0 mg/kg/injection, schedule: Q01DX009 (ip), vehicle: saline
[5] = dose: 200.0 mg/kg/injection, schedule: Q01DX009 (ip), vehicle: saline
[6] = dose: 100.0 mg/kg/injection, schedule: Q01DX009 (ip), vehicle: saline with Tween-80
[7] = dose: 200.0 mg/kg/injection, schedule: Q01DX009 (ip), vehicle: saline with Tween-80
[8] = dose: 50.0 mg/kg/injection, schedule: Q01DX009 (ip), vehicle: saline
[9] = dose: 25.0 mg/kg/injection, schedule: Q01DX009 (ip), vehicle: saline with Tween-80

Measured: T/C

O=C1/C(=C/c2ccc([N+](=O)[O-])cc2)CCc2ccccc21
inactive: dose: 12.5 mg/kg/injection, schedule: Q01DX009 (ip), vehicle: water 94 % of control | dose: 25.0 mg/kg/injection, schedule: Q01DX009 (ip), vehicle: water 97 % of control | dose: 50.0 mg/kg/injection, schedule: Q01DX009 (ip), vehicle: water 92 % of control | dose: 100.0 mg/kg/injection, schedule: Q01DX009 (ip), vehicle: water 92 % of control

O=C(Nc1ccccc1C(F)(F)F)Nc1cccc2ccccc12
inactive: [1] 91 % of control | [2] 94 % of control

Cc1cc2c(c3oc(C4(C)OC4C4OC4C)cc(=O)c13)C(=O)c1c(O)c(C3CC(C)(N(C)C)C(O)C(C)O3)cc(C3CC(N(C)C)C(O)C(C)O3)c1C2=O (centres undefined)
inactive: dose: 1.3 micrograms/kg/injection, schedule: Q01DX009 (ip), vehicle: clinical formulation 108 % of control | dose: 1.3 micrograms/kg/injection, schedule: Q01DX009 (ip), vehicle: saline 97 % of control | dose: 2.5 micrograms/kg/injection, schedule: Q01DX009 (ip), vehicle: clinical formulation 117 % of control | dose: 2.5 micrograms/kg/injection, schedule: Q01DX009 (ip), vehicle: saline 108 % of control | dose: 4.0 micrograms/kg/injection, schedule: Q01DX009 (ip), vehicle: Klucel (hydroxypropylcellulose) (HPC) 119 % of control | dose: 5.0 micrograms/kg/injection, schedule: Q01DX009 (ip), vehicle: Klucel (hydroxypropylcellulose) (HPC) 122 % of control | dose: 5.0 micrograms/kg/injection, schedule: Q01DX009 (ip), vehicle: saline 107 % of control and 108 % of control | dose: 8.0 micrograms/kg/injection, schedule: Q01DX009 (ip), vehicle: Klucel (hydroxypropylcellulose) (HPC) 110 % of control | dose: 10.0 micrograms/kg/injection, schedule: Q01DX009 (ip), vehicle: clinical formulation 113 % of control | dose: 10.0 micrograms/kg/injection, schedule: Q01DX009 (ip), vehicle: saline 101 % of control and 123 % of control | dose: 20.0 micrograms/kg/injection, schedule: Q01DX009 (ip), vehicle: saline 124 % of control | dose: 40.0 micrograms/kg/injection, schedule: Q01DX009 (ip), vehicle: saline 114 % of control

O=[N+]([O-])c1ccc(N2CCCC2)c([N+](=O)[O-])c1
inactive: [1] 93 % of control | [2] 100 % of control | [3] 100 % of control

C=CCc1cccc(OC)c1OCCN(CC)CC
inactive: dose: 5.0 mg/kg/injection, schedule: Q01DX009 (ip), vehicle: saline with Tween-80 88 % of control | dose: 10.0 mg/kg/injection, schedule: Q01DX009 (ip), vehicle: saline with Tween-80 100 % of control | dose: 20.0 mg/kg/injection, schedule: Q01DX009 (ip), vehicle: saline with Tween-80 100 % of control

CC(=O)c1cccc(NC(=O)Nc2ccccc2)c1
inactive: [1] 96 % of control | [2] 91 % of control | [3] 96 % of control

Cc1cc(=O)[nH]o1
inactive: [4] 106 % of control | [5] 105 % of control | dose: 400.0 mg/kg/injection, schedule: Q01DX009 (ip), vehicle: saline 99 % of control

CCc1cc(C)cc(OC(=O)Nc2ccc(Cl)cc2)c1
inactive: [6] 116 % of control | [7] 87 % of control | dose: 400.0 mg/kg/injection, schedule: Q01DX009 (ip), vehicle: saline with Tween-80 92 % of control

CC(=O)OCC(CCC(C)C)=C(C)C
inactive: dose: 25.0 mg/kg/injection, schedule: Q04DX003 (ip), vehicle: saline with Tween-80 104 % of control | dose: 50.0 mg/kg/injection, schedule: Q04DX003 (ip), vehicle: saline with Tween-80 104 % of control | [6] 97 % of control | dose: 100.0 mg/kg/injection, schedule: Q04DX003 (ip), vehicle: saline with Tween-80 86 % of control and 97 % of control | [7] 104 % of control

COc1cc2ccc(Cc3nccc4cc(OC)c(OC)cc34)cc2cc1OC
inactive: [1] 93 % of control | [2] 93 % of control

NC(Cn1ccc(=O)c(O)c1)C(=O)O (centres undefined)
inactive: [8] 109 % of control | dose: 100.0 mg/kg/injection, schedule: Q01DX007 (ip), vehicle: saline with Tween-80 98 % of control | [4] 107 % of control | dose: 200.0 mg/kg/injection, schedule: Q01DX007 (ip), vehicle: saline with Tween-80 88 % of control | [5] 109 % of control | dose: 294.0 mg/kg/injection, schedule: Q01DX007 (ip), vehicle: saline with Tween-80 117 % of control | dose: 300.0 mg/kg/injection, schedule: Q01DX007 (ip), vehicle: saline with Tween-80 86 % of control | dose: 367.5 mg/kg/injection, schedule: Q01DX007 (oral), vehicle: saline with Tween-80 103 % of control | dose: 420.0 mg/kg/injection, schedule: Q01DX007 (ip), vehicle: saline with Tween-80 96 % of control | dose: 525.0 mg/kg/injection, schedule: Q01DX007 (oral), vehicle: saline with Tween-80 96 % of control | dose: 750.0 mg/kg/injection, schedule: Q01DX007 (oral), vehicle: saline with Tween-80 98 % of control

CC(C)c1ccc(O)c(O)c1
inactive: dose: 12.5 mg/kg/injection, schedule: Q01DX009 (ip), vehicle: saline 95 % of control | [9] 104 % of control | dose: 25.0 mg/kg/injection, schedule: Q01DX009 (ip), vehicle: saline 100 % of control | [8] 96 % of control

O=C(CO)c1ccc([N+](=O)[O-])cc1
inactive: dose: 3.12 mg/kg/injection, schedule: Q01DX009 (ip), vehicle: saline with Tween-80 97 % of control and 100 % of control | dose: 6.25 mg/kg/injection, schedule: Q01DX009 (ip), vehicle: saline with Tween-80 103 % of control | dose: 12.5 mg/kg/injection, schedule: Q01DX009 (ip), vehicle: saline with Tween-80 99 % of control and 106 % of control | [9] 100 % of control and 104 % of control | dose: 50.0 mg/kg/injection, schedule: Q01DX009 (ip), vehicle: saline with Tween-80 96 % of control and 108 % of control | [6] 93 % of control and 100 % of control

COc1cc(NS(C)(=O)=O)ccc1Nc1c2ccc([N+](=O)[O-])cc2nc2c(C)cccc12
inactive: dose: 0.08 mg/kg/injection, schedule: Q01DX009 (ip), vehicle: saline with Tween-80 105 % of control | dose: 0.15 mg/kg/injection, schedule: Q01DX009 (ip), vehicle: saline with Tween-80 107 % of control | dose: 0.6 mg/kg/injection, schedule: Q01DX009 (ip), vehicle: saline with Tween-80 122 % of control
